Key:
[1] = osteoporosis prone postmenopausal women; cited from earlier work
[2] = cited from earlier work; for effectiveness in raising urinary citrate compared with tricalcium dicitrate: vs tricalcium dicitrate
[3] = cited from earlier work
[4] = Calcium absorption from oral tablets (increment in urinary calcium during the second two hours, Example 5); settings: 400 mg elemental calcium, ten normal volunteers, SD
Protocol: Calcium absorption was measured from the increment in urinary calcium during the second two hours following the administration of the oral calcium tablets.
The calcium absorption was measured from the increment in urinary calcium during the second two hours following oral calcium load, expressed as mg calcium/dl glomerular filtrate (GF).

[5] = cited from earlier work; remark: listed apart in the source
[6] = Bulk density of the dried granular composition; assay type: physicochemical
Protocol: 38.4 grams of citric acid powder and 40 grams of calcium carbonate were thoroughly mixed in a large beaker. 36 grams of lactic acid, 50 weight percent solution, was slowly added with rapid stirring. 40 grams of water was then introduced slowly in small portions, each portion was added after the CO2 evolution slowed or ceased. After drying, the material was sized and found to have a bulk density greater than 1.1 g/cc. Bulk density was determined by an Archimedean method. This dense granular dicalcium citrate-lactate was subjected to compression tableting to form tablets containing 10 meq (200 milligrams) of calcium, and 7.5 meq (472 milligrams) of citrate, with a size of 0.29 (7.47 millimeters) inch by 0.74 (1.9 centimeters) inch.
The dicalcium citrate-lactate tablets of the present invention were also produced on a large scale. 38.4 kilograms of citric acid powder and calcium carbonate were placed in a Colton 7 cubic ft. ribbon mixer and blended for 2 minutes. Thirty six kilograms of the lactic acid, 50 weight percent solution, were added in approximately three equal portions, 3 minutes apart with continuous mixing. Water (40 kilograms) was added in approximately four equal portions 2-3 minutes apart with continuous mixing. Mixing continued for 10 minutes. The resultant granular and lumpy material was passed through a Fitzmill, knives forward, with no screen, trayed and dried at 212° F.-221° F. (100° C.-105° C.) for three hours. The dried product was sized and its bulk density was determined to be greater than 1.1 g/cc. The sizing was done using a Fitzmill Model No. 6 with a 31262AA screen.
The procedure previously described in Example 2 was followed with the exception of calcium carbonate being replaced by calcium oxide. Dicalcium citrate-lactate having a bulk density of greater than 0.7 g/cc was produced.
The procedure previously described in Example 2 was followed with the exception of calcium carbonate being replaced by calcium hydroxide. Calcium citrate lactate having a bulk density of greater than 0.8 g/cc was produced.

estrogen
prevention of further bone losses [1]: further bone losses in osteoporosis prone postmenopausal women may be prevented

O=C(O)[C@H](O)[C@@H](O)[C@H](O)[C@H](O)CO [calcium gluconate]
effectiveness in raising urinary citrate compared with tricalcium dicitrate [2]: not as effective as tricalcium dicitrate
aqueous solubility [3]: high aqueous solubility

CC(O)C(=O)O (stereo not drawn) [calcium lactate]
effectiveness in raising urinary citrate compared with tricalcium dicitrate [2]: not as effective as tricalcium dicitrate

O=C(O)O [calcium carbonate]
prevention of further bone losses [1]: to a lesser extent

O=C(O)CC(O)(CC(=O)O)C(=O)O [tricalcium dicitrate]
urinary citrate ([2]; Harvey, Zobitz and Pak 1985): increased urinary citrate
calcium absorption (increment in urinary calcium) [4]: 0.044±0.051 mg/dl GF
precipitation out of simulated duodenal juice [5]: did not precipitate out of simulated duodenal juice

CC(O)C(=O)[O-].O=C([O-])CC(O)(CC(=O)[O-])C(=O)[O-].[Ca+2].[Ca+2] [dicalcium citrate-lactate]
bulk density ([6]; from calcium carbonate, large batch (Example 2)): greater than 1.1 g/cc
bulk density ([6]; from calcium carbonate, small batch (Example 1), Archimedean method): greater than 1.1 g/cc
bulk density ([6]; from calcium hydroxide, large batch (Example 4)): greater than 0.8 g/cc
bulk density ([6]; from calcium oxide, large batch (Example 3)): greater than 0.7 g/cc

Source: patent US5075499A, “Calcium supplementation by dicalcium citrate-lactate” (Board of Regents, The University of Texas System, priority 1988, dated 1991)
